Source: paper PMC5137965 (Future Science OA, 2016)

Assays:
[1] = Stock and working solution stability; type: physicochemical; conditions: for Short-term stability, %Stability: 8.46 h at room temperature; for Stock solution stability, %Stability: 21 days, stock solutions in methanol stored at refrigerator temperature 1–10°C; for working solutions found stable for: room temperature
Experimental: Separate stock solutions were used to prepare calibration curve (CC) standards and quality (QC) control samples. The prepared stock solutions were protected from light and stored in refrigerator between 1–10°C until use. A fresh working solution of IS (1500.00 ng/ml) was prepared everyday by taking appropriate dilution of the stock solution in methanol:water (50:50 v/v).
Stock solution stability of both analyte and internal standard was carried out for 21 days at refrigerated temperature (1–10°C). Short-term stability both analyte and internal standard was carried out for 8.46 h at room temperature.

[2] = Blood stability (sample collection process stability) at room temperature; type: in vitro ADME, human; conditions: 2.45 h at room temperature
[3] = Stability of spiked human plasma QC samples (bench top, freeze-thaw, autosampler, long-term); type: in vitro ADME; conditions: for Auto sampler stability (100.87 h), %Nominal, stability QC samples: processed samples
[4] = cited from earlier work
[5] = human plasma, low concentration QC

Structure (SMILES) | Short-term stability, %Stability [1] [%] | Stock solution stability, %Stability [1] [%] | working solutions found stable for [1] [h] | %Stability ([2]; HQC) [%] | %Stability ([2]; LQC) [%] | processed samples stable in auto sampler for ([3]; at 10°C) [h] | Bench top stability during extraction (9.60 h), %Nominal, stability QC samples ([3]; high concentration QC) [%] | bench top stability in matrix ([3]; human plasma, 6.15 h) [%] | comparative freeze-thaw stability at the end of third freeze and thaw cycle ([3]; human plasma, below -15°C and below -50°C) [%] | Freeze thaw stability (three freeze thaw cycles, below -50°C), %Nominal, stability QC samples ([3]; human plasma, high concentration QC) [%] | Bench top stability in matrix (6.15 h), %Nominal, stability QC samples [3, 5] [%] | Freeze thaw stability (three freeze thaw cycles, below -15°C), %Nominal, stability QC samples [3, 5] [%] | Freeze thaw stability (three freeze thaw cycles, below -50°C), %Nominal, stability QC samples [3, 5] [%] | Bench top stability during extraction (9.60 h), %Nominal, stability QC samples ([3]; low concentration QC) [%] | Auto sampler stability (100.87 h), %Nominal, stability QC samples ([3]; high concentration QC) [%] | Auto sampler stability (100.87 h), %Nominal, stability QC samples ([3]; low concentration QC) [%] | stock solution found stable for ([1]; stored in refrigerator between 1 and 10°C) [days] | permeability ([4]; inferred from almost complete oral absorption) | Tmax ([4]; oral) [h]
[2H]c1c([2H])c(C(=O)Nc2ccc(C)c(Nc3nccc(-c4cccnc4)n3)c2)c([2H])c([2H])c1CN1CCN(C)CC1 [imatinib-D4] | 100.96 | 99.15 | 16 |  |  |  |  |  |  |  |  |  |  |  |  |  |  |  | 
Cc1ccc(NC(=O)c2ccc(CN3CCN(C)CC3)cc2)cc1Nc1nccc(-c2cccnc2)n1 [imatinib] | 101.88 | 101.63 | 16 | 99.27 | 100.72 | 100.87 | 98.96 | 97.75 to 100.23 | 97.45 to 101.41 | 102.3 | 96.03 | 97.16 | 97.03 | 94.80 | 102.61 | 98.34 | 21 | high permeability | 2 to 4
